Test [1] has as its target T1, Purine nucleoside phosphorylase (Bos taurus, UniProt P55859).
T1 sequence (P55859 whole entry): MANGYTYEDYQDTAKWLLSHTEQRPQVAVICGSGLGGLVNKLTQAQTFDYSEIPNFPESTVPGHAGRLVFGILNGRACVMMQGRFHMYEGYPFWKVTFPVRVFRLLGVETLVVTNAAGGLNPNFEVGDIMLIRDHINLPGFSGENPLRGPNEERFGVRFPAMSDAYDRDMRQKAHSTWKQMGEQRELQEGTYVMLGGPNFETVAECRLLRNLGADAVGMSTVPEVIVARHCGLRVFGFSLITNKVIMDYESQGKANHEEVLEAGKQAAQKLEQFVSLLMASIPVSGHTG
Nature of the test: Binding affinity to calf recombinant PNP expressed in Escherichia coli BL21 (DE3) by fluorimetric titration analysis.

The target of test [2] is T1, Purine nucleoside phosphorylase.
The target in test [3] is T2, Purine nucleoside phosphorylase (Bos taurus) (UniProt P55859).
T2 sequence (whole entry): T1 sequence (P55859 whole entry)
Description: Inhibition of bovine PNP using 7-methylguanosine as substrate by spectrophotometric based coupled assay

Test [4] addresses T3, Purine nucleoside phosphorylase (Bos taurus, UniProt P55859, F200W). Nature of the test: Binding affinity to calf recombinant PNP Phe200Trp mutant expressed in Escherichia coli BL21 (DE3) by competitive binding fluorimetric analysis in presence of DFPP-DG.
For test [5], the target named is T3, Purine nucleoside phosphorylase.
Description: Binding affinity to calf recombinant PNP Phe200Trp mutant expressed in Escherichia coli BL21 (DE3) by fluorimetric titration analysis
The target of test [6] is Purine nucleoside phosphorylase (Bos taurus, UniProt P55859, F159W). Nature of the test: Binding affinity to calf recombinant PNP Phe159Trp mutant expressed in Escherichia coli BL21 (DE3) by fluorimetric titration analysis.
Test [7] deals with T1, Purine nucleoside phosphorylase. Nature of the test: Binding affinity to calf recombinant PNP expressed in Escherichia coli BL21 (DE3) by isothermal titration calorimetry/ fluorimetric titration analysis. (In general: In ITC the heat of successive injections is recorded.)

pKd: −log10 of the molar value.

T3 sequence (P55859 whole entry F200W): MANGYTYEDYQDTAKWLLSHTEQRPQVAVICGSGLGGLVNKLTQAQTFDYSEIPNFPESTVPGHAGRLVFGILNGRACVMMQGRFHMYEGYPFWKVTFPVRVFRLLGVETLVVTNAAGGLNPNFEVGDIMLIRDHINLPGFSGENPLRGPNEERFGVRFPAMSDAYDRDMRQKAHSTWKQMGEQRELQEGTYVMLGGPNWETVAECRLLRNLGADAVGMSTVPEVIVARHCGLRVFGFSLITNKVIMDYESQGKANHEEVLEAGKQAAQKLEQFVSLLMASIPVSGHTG
Sequence of Purine nucleoside phosphorylase (Bos taurus, UniProt P55859, F159W) (P55859 whole entry F159W): as the sequence (P55859 whole entry F200W) above, with F159W, W200F counted along it

What is called pKd is the negative decadic logarithm of the Kd, by convention in mol/L. `Nc1nc2cc[nH]c2c(=O)[nH]1`: the negative logarithm of the Kd (pKd) in test [1] is 6.77; in test [2] it was 6.80. Besides, in test [3], the Kieq came to 7.4 µM.

For the molecule `C[C@@H](Cn1cnc2c(N)nc(N)nc21)OCP(=O)(O)O`, the pKd in test [4] was 6.07. Also, in test [3], the Kieq amounted to 6 µM.

On to `O=c1[nH]cnc2nc[nH]c12`, for which the Kieq in test [3] worked out at 2.5 µM.

Regarding `Nc1nc2nc[nH]c2c(=O)[nH]1` [GUANINE], the pKd in test [1] is 6.80; in test [2] it was 6.92; in test [5] it was 6.80; in test [6], 5.48.

`O=c1[nH]cnc2c([C@@H]3N[C@H](CO)[C@@H](O)[C@H]3O)c[nH]c12` [FORODESINE]: in test [2], the pKd is 10.64.

As to `Nc1nc2[nH]cnc2c(=O)[nH]1`, the Kieq in test [3] stood at 4 µM.

Consider `Nc1nc2c(CNCCC(F)(F)P(=O)(O)O)c[nH]c2c(=O)[nH]1`, for which the pKd in test [7] is 8.44. The molecule also displayed a Kieq in test [3] of 0.0068 µM.

The values above are taken from ChEMBL document CHEMBL2157872, “Trimeric purine nucleoside phosphorylase: exploring postulated one-third-of-the-sites binding in the transition state” (Bioorg Med Chem, 2012).
